The source of these data is US12378224B2 (Dong-A Socio Holdings Co., Ltd., priority 2016, dated 2025).

The target in this experiment is human MER (528-end) (Homo sapiens (Human), UniProt Q12866). Kind of experiment: HTRF Kinase Activity Biochemical Assay (KinEASE-TK). To be noted: 10 uM ATP. In a few lines:
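Recombinant human MER (528-end) phosphorylated biotin-TK peptide substrate, 1 h at room temperature. Reaction stopped with detection buffer containing 0.375 nM Eu3+-cryptate anti-TK antibody and 0.062 uM streptavidin-XL665, 1 h further. Activity taken as HTRF ratio 665/620 nm ×10,000, 340 nm excitation.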
For orientation: In TR-FRET formats the signal depends on donor and acceptor labels being close together.

What is called IC50 is the concentration that inhibits the measured activity by half.

Where only a bound is given, the exact number is not on record here.

Sequence of human MER (528-end) (Q12866 528-999 limits assumed): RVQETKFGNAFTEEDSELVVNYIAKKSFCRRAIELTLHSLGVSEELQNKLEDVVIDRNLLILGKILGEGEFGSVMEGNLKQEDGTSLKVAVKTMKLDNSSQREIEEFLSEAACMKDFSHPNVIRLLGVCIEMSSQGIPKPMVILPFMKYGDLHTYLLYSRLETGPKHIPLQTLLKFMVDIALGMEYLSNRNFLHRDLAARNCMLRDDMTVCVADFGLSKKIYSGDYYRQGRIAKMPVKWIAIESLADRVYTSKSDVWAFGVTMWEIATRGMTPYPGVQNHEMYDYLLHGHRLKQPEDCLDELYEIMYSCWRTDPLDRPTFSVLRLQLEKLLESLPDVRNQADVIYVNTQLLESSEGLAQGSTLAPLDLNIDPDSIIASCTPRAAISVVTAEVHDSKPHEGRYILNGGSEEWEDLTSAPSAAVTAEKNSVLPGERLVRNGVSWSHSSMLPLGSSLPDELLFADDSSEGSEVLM

Compound `Nc1ncc(-c2ccc(C(=O)N3CCN(CCO)CC3)cc2)cc1C(=O)N[C@@H]1CCN(C(=O)c2ccc(-c3ccccc3Cl)cc2)C1` [Example 589, (R)-2-amino-N-(1-(2′-chloro-[1,1′-biphenyl]-4-carbonyl)pyrrolidin-3-yl)-5-(4-(4-(2-hydroxyethyl)piperazine-1-carbonyl)phenyl)nicotinamide] returned an IC50 of 0.01 to 0.1 µM.

Consider `CN(C(=O)c1cc(-c2cnn(C)c2)cnc1N)[C@@H]1CCN(Cc2ccccc2)C1` [Example 623, (R)-2-amino-N-(1-benzylpyrrolidin-3-yl)-N-methyl-5-(1-methyl-1H-pyrazol-4-yl)nicotinamide], for which the IC50 is > 1 µM.

For the compound `CN(C(=O)N1CC[C@@H](NC(=O)c2cc(-c3cnn(C)c3)cnc2N)C1)c1ccccc1` [Example 625, (R)-2-amino-N-(1-(methyl(phenyl)carbamoyl)pyrrolidin-3-yl)-5-(1-methyl-1H-pyrazol-4-yl)nicotinamide], the IC50 is > 1 µM.

In the case of `Nc1ncc(-c2cnn(C3CCNCC3)c2)cc1C(=O)N[C@@H]1CCN(C(CO)c2ccccc2)C1` (stereo partly drawn) [Example 629, 2-amino-N-((3R)-1-(2-hydroxy-1-phenylethyl)pyrrolidin-3-yl)-5-(1-(piperidin-4-yl)-1H-pyrazol-4-yl)nicotinamide], the IC50 was > 1 µM.

As for `Nc1ncc(-c2cnn(C3CCNCC3)c2)cc1C(=O)N[C@@H]1CCN(Cc2ccnc(Cl)c2)C1` [Example 631, (R)-2-amino-N-(1-((2-chloropyridin-4-yl)methyl)pyrrolidin-3-yl)-5-(1-(piperidin-4-yl)-1H-pyrazol-4-yl)nicotinamide], the IC50 was > 1 µM.

As to `CC(C)Cn1cc(-c2cnc(N)c(C(=O)N[C@@H]3CCN(Cc4ccccc4Cl)C3)c2)cn1` [Example 632, (R)-2-amino-N-(1-(2-chlorobenzyl)pyrrolidin-3-yl)-5-(1-isobutyl-1H-pyrazol-4-yl)nicotinamide], the IC50 lay in the range of 0.1 to 1 µM.

On to `CN1CCN(Cc2ccc(C(=O)N3CC[C@@H](NC(=O)c4cc(-c5cnn(C)c5)cnc4N)C3)cc2)CC1` [Example 640, (R)-2-amino-5-(1-methyl-1H-pyrazol-4-yl)-N-(1-(4-((4-methylpiperazin-1-yl)methyl)benzoyl)pyrrolidin-3-yl)nicotinamide], for which the IC50 was > 1 µM.

For `Cn1cc(-c2cnc(N)c(C(=O)N[C@@H]3CCN(C(=O)c4ccc(CN5CCN(CCO)CC5)cc4)C3)c2)cn1` [Example 641, (R)-2-amino-N-(1-(4-((4-(2-hydroxyethyl)piperazin-1-yl)methyl)benzoyl)pyrrolidin-3-yl)-5-(1-methyl-1H-pyrazol-4-yl)nicotinamide], the IC50 is > 1 µM.

Take `Cn1cc(-c2cnc(N)c(C(=O)N[C@@H]3CCN(C(=O)c4ccc(-c5ccc(N)cc5)cc4)C3)c2)cn1` [Example 662, (R)-2-amino-N-(1-(4′-amino-[1,1′-biphenyl]-4-carbonyl)pyrrolidin-3-yl)-5-(1-methyl-1H-pyrazol-4-yl)nicotinamide]: the IC50 is > 1 µM.

In turn, `Cn1cc(-c2cnc(N)c(C(=O)N[C@@H]3CCN(C(=O)c4ccc(-c5cc(F)cc(Cl)c5)cc4)C3)c2)cn1` [Example 663, (R)-2-amino-N-(1-(3′-chloro-5′-fluoro-[1,1′-biphenyl]-4-carbonyl)pyrrolidin-3-yl)-5-(1-methyl-1H-pyrazol-4-yl)nicotinamide] came in with an IC50 of 0.01 to 0.1 µM.

For `Cn1cc(-c2cnc(N)c(C(=O)N[C@@H]3CCN(C(=O)c4ccc(-c5cc(Cl)c(F)c(Cl)c5)cc4)C3)c2)cn1` [Example 664, (R)-2-amino-N-(1-(3′,5′-dichloro-4′-fluoro-[1,1′-biphenyl]-4-carbonyl)pyrrolidin-3-yl)-5-(1-methyl-1H-pyrazol-4-yl)nicotinamide], the IC50 was in the range of 0.1 to 1 µM.

For `Cn1cc(-c2cnc(N)c(C(=O)N[C@@H]3CCN(C(=O)c4ccc(-c5cc(F)ccc5Cl)cc4)C3)c2)cn1` [Example 667, (R)-2-amino-N-(1-(2′-chloro-5′-fluoro-[1,1′-biphenyl]-4-carbonyl)pyrrolidin-3-yl)-5-(1-methyl-1H-pyrazol-4-yl)nicotinamide], the IC50 fell in the range of 0.01 to 0.1 µM.

With `Cn1cc(-c2cnc(N)c(C(=O)N[C@@H]3CCN(C(=O)c4cccc5c(Br)cccc45)C3)c2)cn1` [Example 669, (R)-2-amino-N-(1-(5-bromo-1-naphthoyl)pyrrolidin-3-yl)-5-(1-methyl-1H-pyrazol-4-yl)nicotinamide], the IC50 is > 1 µM.

On to `CCc1cc(CO[C@H]2CN(C(=O)c3ccc(-c4ccccc4)cc3)C[C@@H]2NC(=O)c2cc(-c3cnn(C)c3)cnc2N)ccc1C` [Example 674, N-((3S,4S)-1-([1,1′-biphenyl]-4-carbonyl)-4-((3-ethyl-4-methylbenzyl)oxy)pyrrolidin-3-yl)-2-amino-5-(1-methyl-1H-pyrazol-4-yl)nicotinamide], for which the IC50 was > 1 µM.

Regarding `CCc1cc(CO[C@H]2CN(C(=O)c3cccc(-c4ccccc4)c3)C[C@@H]2NC(=O)c2cc(-c3cnn(C)c3)cnc2N)ccc1C` [Example 675, N-((3S,4S)-1-([1,1′-biphenyl]-3-carbonyl)-4-((3-ethyl-4-methylbenzyl)oxy)pyrrolidin-3-yl)-2-amino-5-(1-methyl-1H-pyrazol-4-yl)nicotinamide], the IC50 was > 1 µM.

In the case of `Cn1cc(-c2cnc(N)c(C(=O)N[C@@H]3CCN(C(=O)c4ccc(-c5ccc(CC#N)cc5)cc4)C3)c2)cn1` [Example 676, (R)-2-amino-N-(1-(4′-(cyanomethyl)-[1,1′-biphenyl]-4-carbonyl)pyrrolidin-3-yl)-5-(1-methyl-1H-pyrazol-4-yl)nicotinamide], the IC50 was 0.1 to 1 µM.

For `Cn1cc(-c2cnc(N)c(C(=O)N[C@@H]3CCN(C(=O)c4ccc(-c5ccc(C(N)=O)c(F)c5)cc4)C3)c2)cn1` [Example 680, (R)-2-amino-N-(1-(4′-carbamoyl-3′-fluoro-[1,1′-biphenyl]-4-carbonyl)pyrrolidin-3-yl)-5-(1-methyl-1H-pyrazol-4-yl)nicotinamide], the IC50 lay in the range of 0.1 to 1 µM.

`Cn1cc(-c2cnc(N)c(C(=O)N[C@H]3CN(C(=O)c4ccc(-c5ccc(F)cc5Cl)cc4)C[C@H]3F)c2)cn1` [Example 682, 2-amino-N-((3S,4R)-1-(2′-chloro-4′-fluoro-[1,1′-biphenyl]-4-carbonyl)-4-fluoropyrrolidin-3-yl)-5-(1-methyl-1H-pyrazol-4-yl)nicotinamide]: the IC50 is > 1 µM.

On to `COC(=O)[C@H]1C[C@@H](NC(=O)c2cc(-c3cnn(C)c3)cnc2N)CN1C(=O)c1ccc(-c2ccccc2)cc1` [Example 683, methyl (2R,4R)-1-([1,1′-biphenyl]-4-carbonyl)-4-(2-amino-5-(1-methyl-1H-pyrazol-4-yl)nicotinamido)pyrrolidine-2-carboxylate], for which the IC50 was in the range of 0.1 to 1 µM.

`COC(=O)[C@H]1C[C@@H](NC(=O)c2cc(-c3cnn(C)c3)cnc2N)CN1C(=O)c1cccc(-c2ccccc2)c1` [Example 684, Methyl (2R,4R)-1-([1,1′-biphenyl]-3-carbonyl)-4-(2-amino-5-(1-methyl-1H-pyrazol-4-yl)nicotinamido)pyrrolidine-2-carboxylate]: the IC50 was > 1 µM.

On to `COC(=O)[C@@H]1C[C@H](NC(=O)c2cc(-c3cnn(C)c3)cnc2N)CN1C(=O)c1ccc(-c2ccccc2)cc1` [Example 685, methyl (2S,4S)-1-([1,1′-biphenyl]-4-carbonyl)-4-(2-amino-5-(1-methyl-1H-pyrazol-4-yl)nicotinamido)pyrrolidine-2-carboxylate], for which the IC50 was > 1 µM.

`COC(=O)[C@@H]1C[C@H](NC(=O)c2cc(-c3cnn(C)c3)cnc2N)CN1C(=O)c1cccc(-c2ccccc2)c1` [Example 686, methyl (2S,4S)-1-([1,1′-biphenyl]-3-carbonyl)-4-(2-amino-5-(1-methyl-1H-pyrazol-4-yl)nicotinamido)pyrrolidine-2-carboxylate]: the IC50 was > 1 µM.

Turning to `CCOC(=O)C1CN(C(=O)c2cccc(-c3ccccc3)c2)CC1NC(=O)c1cc(-c2cnn(C)c2)cnc1N` (stereo not shown) [Example 688, ethyl 1-([1,1′-biphenyl]-3-carbonyl)-4-(2-amino-5-(1-methyl-1H-pyrazol-4-yl)nicotinamido)pyrrolidine-3-carboxylate], the IC50 was > 1 µM.

Take `Cc1cc(-c2cc(F)ccc2Cl)ccc1C(=O)N1CC[C@@H](NC(=O)c2cc(-c3cnn(C)c3)cnc2N)C1` [Example 691, (R)-2-amino-N-(1-(2′-chloro-5′-fluoro-3-methyl-[1,1′-biphenyl]-4-carbonyl)pyrrolidin-3-yl)-5-(1-methyl-1H-pyrazol-4-yl)nicotinamide]: the IC50 is > 1 µM.

Regarding `Cc1cc(C(=O)N2CC[C@@H](NC(=O)c3cc(-c4cnn(C)c4)cnc3N)C2)ccc1-c1cc(F)ccc1Cl` [Example 692, (R)-2-amino-N-(1-(2′-chloro-5′-fluoro-2-methyl-[1,1′-biphenyl]-4-carbonyl)pyrrolidin-3-yl)-5-(1-methyl-1H-pyrazol-4-yl)nicotinamide], the IC50 lay within 0.01 to 0.1 µM.

`Cn1cc(-c2cnc(N)c(C(=O)N[C@@H]3CCN(C(=O)c4ccc(-c5cc(F)ccc5Cl)cc4Cl)C3)c2)cn1` [Example 693, (R)-2-amino-N-(1-(2′,3-dichloro-5′-fluoro-[1,1′-biphenyl]-4-carbonyl)pyrrolidin-3-yl)-5-(1-methyl-1H-pyrazol-4-yl)nicotinamide]: the IC50 was > 1 µM.

For `Cn1cc(-c2cnc(N)c(C(=O)N[C@@H]3CCN(C(=O)c4ccc(-c5ccc(F)cc5Cl)cc4Cl)C3)c2)cn1` [Example 694, (R)-2-amino-N-(1-(2′,3-dichloro-4′-fluoro-[1,1′-biphenyl]-4-carbonyl)pyrrolidin-3-yl)-5-(1-methyl-1H-pyrazol-4-yl)nicotinamide], the IC50 was > 1 µM.

For the compound `Cn1cc(-c2cnc(N)c(C(=O)N[C@@H]3CCN(C(=O)[C@H]4C[C@@H]4c4ccccc4)C3)c2)cn1` [Example 705, 2-amino-5-(1-methyl-1H-pyrazol-4-yl)-N—((R)-1-((1S,2S)-2-phenylcyclopropane-1-carbonyl)pyrrolidin-3-yl)nicotinamide], the IC50 was > 1 µM.
